Measurements: US20260207578A1, “COMPOUND BASED ON SULFUR/OXYGEN SUBSTITUTED GLUTARIMIDE-BASED ISOINDOLINONE SKELETON AND USE THEREOF” (Gluetacs Therapeutics (Shanghai) Co., LTD., priority 2022, published 2026)

How the values were obtained:
[1] = target: T1, human Cereblon WT GST-tagged protein (Homo sapiens, UniProt Q96SW2); assay: CRBN-binding affinity, HTRF (CEREBLON BINDING kit); conditions: displacement of Thalidomide-Re reagent, 3 hours at room temperature
T1 construct: purchased CISBIO 64BDCRBNPEH
T1 sequence (Q96SW2 whole entry): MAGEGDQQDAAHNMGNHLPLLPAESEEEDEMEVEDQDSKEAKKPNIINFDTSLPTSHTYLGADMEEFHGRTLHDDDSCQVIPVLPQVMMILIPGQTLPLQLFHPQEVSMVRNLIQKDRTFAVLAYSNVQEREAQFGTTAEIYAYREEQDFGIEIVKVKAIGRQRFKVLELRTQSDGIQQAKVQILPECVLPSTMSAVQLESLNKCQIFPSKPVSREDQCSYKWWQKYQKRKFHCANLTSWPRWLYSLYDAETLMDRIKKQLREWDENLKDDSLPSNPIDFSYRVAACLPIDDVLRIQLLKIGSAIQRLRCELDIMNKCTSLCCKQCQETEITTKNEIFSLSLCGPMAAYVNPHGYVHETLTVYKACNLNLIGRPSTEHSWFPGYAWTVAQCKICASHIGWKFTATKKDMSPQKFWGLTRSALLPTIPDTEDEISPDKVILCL
Procedure, shortened: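 HTRF competition format: compound, GST-tagged wild-type human Cereblon, Thalidomide-Re tracer and GST Eu antibody were combined in PROTAC binding buffer. Binding was derived from emission at 620 nm relative to blank and solvent control wells.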

IKZF1 = target: T2, IKZF1 (Homo sapiens, UniProt Q13422+Q96SW2); assay: Western-blot assay, substrate protein in hPBMCs; type: cell-based; conditions: hPBMC cells, 24 hours, tested at 50 nM and 500 nM, table does not say which
T2 construct: endogenous in cells; host or cells: human PBMCs (Milecell Biotechnologies)
T2 sequence (Q13422 whole entry): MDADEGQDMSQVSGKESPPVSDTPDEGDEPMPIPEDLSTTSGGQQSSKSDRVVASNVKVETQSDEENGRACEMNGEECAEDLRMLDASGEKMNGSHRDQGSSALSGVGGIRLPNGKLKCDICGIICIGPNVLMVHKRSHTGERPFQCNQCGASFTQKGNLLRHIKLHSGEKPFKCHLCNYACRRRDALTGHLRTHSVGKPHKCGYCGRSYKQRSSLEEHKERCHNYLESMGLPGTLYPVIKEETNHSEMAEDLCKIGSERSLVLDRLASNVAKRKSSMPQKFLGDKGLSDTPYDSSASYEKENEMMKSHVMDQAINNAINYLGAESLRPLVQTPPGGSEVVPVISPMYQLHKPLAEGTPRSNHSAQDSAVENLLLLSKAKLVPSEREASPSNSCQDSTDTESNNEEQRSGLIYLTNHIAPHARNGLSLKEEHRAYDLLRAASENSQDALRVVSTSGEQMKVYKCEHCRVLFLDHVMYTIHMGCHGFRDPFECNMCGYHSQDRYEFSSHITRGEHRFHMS
T2 sequence (Q96SW2 whole entry): as the sequence (Q96SW2 whole entry) above
T2 sequence (Q16531 whole entry partner): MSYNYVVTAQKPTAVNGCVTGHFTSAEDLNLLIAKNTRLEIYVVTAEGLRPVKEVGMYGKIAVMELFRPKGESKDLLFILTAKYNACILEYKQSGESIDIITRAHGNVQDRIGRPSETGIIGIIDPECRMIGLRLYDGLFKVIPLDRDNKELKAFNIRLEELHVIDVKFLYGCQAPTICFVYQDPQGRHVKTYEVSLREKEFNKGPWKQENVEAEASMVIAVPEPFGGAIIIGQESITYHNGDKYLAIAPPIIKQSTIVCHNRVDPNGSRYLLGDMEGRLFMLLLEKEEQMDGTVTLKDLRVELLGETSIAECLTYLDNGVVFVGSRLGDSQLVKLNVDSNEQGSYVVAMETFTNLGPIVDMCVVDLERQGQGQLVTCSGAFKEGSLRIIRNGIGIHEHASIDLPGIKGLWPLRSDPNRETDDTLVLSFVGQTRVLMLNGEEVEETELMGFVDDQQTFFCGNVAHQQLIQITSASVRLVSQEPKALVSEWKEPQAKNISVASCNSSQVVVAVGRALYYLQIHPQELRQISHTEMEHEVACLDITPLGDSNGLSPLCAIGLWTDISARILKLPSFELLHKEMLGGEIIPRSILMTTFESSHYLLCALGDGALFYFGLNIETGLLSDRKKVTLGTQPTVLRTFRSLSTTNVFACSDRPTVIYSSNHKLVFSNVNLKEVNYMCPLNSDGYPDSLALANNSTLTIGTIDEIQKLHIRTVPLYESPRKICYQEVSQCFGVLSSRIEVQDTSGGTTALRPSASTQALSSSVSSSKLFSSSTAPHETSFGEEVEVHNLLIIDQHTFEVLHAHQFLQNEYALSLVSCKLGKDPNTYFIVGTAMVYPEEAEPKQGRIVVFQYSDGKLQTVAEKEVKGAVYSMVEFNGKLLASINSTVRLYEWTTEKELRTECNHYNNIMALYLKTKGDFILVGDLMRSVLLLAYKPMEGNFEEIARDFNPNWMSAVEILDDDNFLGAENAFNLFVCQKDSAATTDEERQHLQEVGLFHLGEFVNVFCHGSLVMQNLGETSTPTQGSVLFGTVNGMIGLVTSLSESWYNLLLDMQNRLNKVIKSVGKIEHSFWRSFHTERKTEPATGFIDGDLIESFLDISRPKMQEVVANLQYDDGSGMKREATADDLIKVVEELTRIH
Protocol: The effect of the compounds of the present disclosure on the expression of target proteins in cells was detected using conventional Western blot analysis.
Human peripheral blood mononuclear cells (hPBMCs) at a density of 1×10^6 cells/mL were thawed according to the PBMC Recovery Protocol (Milecell Biotechnologies Inc, Shanghai). The cells were then treated with the compounds of the present disclosure (including the compounds listed in Tables 1 and 2, and the Examples A1-A20 and 1-116 compounds) at concentrations of 50 nM and 500 nM.
Controls included a negative control (DMSO) and a positive control (the commercial immunomodulatory drug lenalidomide), both processed following the identical experimental protocol as the compounds of the present disclosure. After 24 hours of compounds treatment, cells were harvested and lysed in RIPA protein lysate containing phosphatase inhibitors on ice for 30-60 min, followed by centrifugation. The supernatant was aspirated as the extracted total cell protein. The protein concentration of the supernatant was determined using the conventional BCA (Bicinchoninic Acid) assay. The supernatant was then mixed with 4× SDS sample loading buffer, denatured at 95° C. for 5 minutes, and then subjected to SDS-PAGE electrophoresis on a polyacrylamide gel. Proteins were then transferred to a nitrocellulose (NC) membrane, blocked at room temperature for 1-2 h, and processed for antibody incubation and detection according to the manufacturer's instructions (Cell Signaling Technology).
Half-Maximal Degradation Concentration value (the drug concentration required for degrading proteins by 50%, abbreviated as DC50) reads method: comparing the grayscale values of Western blot bands from drug-treated samples with those from blank DMSO-treated controls, and identifying the drug concentration range at which the grayscale value is half that of the DMSO-treated control bands.
DC50 values can be calculated using ImageJ software to measure grayscale values of Western blot bands from drug-treated samples. The concentration-response curve is fitted to estimate the drug concentration corresponding to half the grayscale value.
Target protein remaining (%) refers to the percentage of target protein remaining in hPBMC cells after treatment with protein degrader compounds.
Calculation method for protein remaining (%): Use ImageJ software to measure grayscale values of Western blot bands from drug (protein degrader)-treated samples. The grayscale value of drug-treated bands is divided by that of internal control protein bands, and the resulting quotient is normalized to obtain the relative percentage of remaining target protein after protein degrader treatment.
Target protein degradation rate (%)=100%−target protein remaining (%).

Wee1 = target: T3, Wee1 (Homo sapiens, UniProt P30291+Q96SW2); assay: Western-blot assay, substrate protein in hPBMCs; type: cell-based; conditions: hPBMC cells, 24 hours, tested at 50 nM and 500 nM, table does not say which
T3 construct: endogenous in cells; host or cells: human PBMCs (Milecell Biotechnologies)
T3 sequence (P30291 whole entry): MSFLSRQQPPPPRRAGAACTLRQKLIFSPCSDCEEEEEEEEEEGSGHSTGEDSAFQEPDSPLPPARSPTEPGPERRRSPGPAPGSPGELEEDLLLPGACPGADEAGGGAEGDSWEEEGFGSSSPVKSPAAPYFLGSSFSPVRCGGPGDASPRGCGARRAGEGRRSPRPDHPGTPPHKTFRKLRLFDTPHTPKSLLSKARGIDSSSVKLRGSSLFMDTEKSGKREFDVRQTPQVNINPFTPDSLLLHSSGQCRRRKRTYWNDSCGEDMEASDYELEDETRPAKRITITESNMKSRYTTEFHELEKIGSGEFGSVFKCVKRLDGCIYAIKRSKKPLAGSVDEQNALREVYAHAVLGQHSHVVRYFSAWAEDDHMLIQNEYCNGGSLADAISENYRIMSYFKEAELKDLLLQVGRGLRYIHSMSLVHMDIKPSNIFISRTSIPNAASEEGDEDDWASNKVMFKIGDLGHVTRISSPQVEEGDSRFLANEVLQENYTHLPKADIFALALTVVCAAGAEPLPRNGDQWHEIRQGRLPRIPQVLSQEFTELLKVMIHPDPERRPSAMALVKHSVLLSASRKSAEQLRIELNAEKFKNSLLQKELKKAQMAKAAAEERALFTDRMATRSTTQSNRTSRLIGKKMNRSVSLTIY
T3 sequence (Q96SW2 whole entry): as the sequence (Q96SW2 whole entry) above
T3 sequence (Q16531 whole entry partner): as the sequence (Q16531 whole entry partner) above
Procedure, shortened: (§1)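 Steps: treat hPBMCs 24 h; lyse on ice in RIPA with phosphatase inhibitors; quantify protein by BCA; denature at 95 °C and blot. Remaining protein (%) is the target/internal-control band ratio, normalised; degradation rate is its complement.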

CK1α = target: T4, CK1α (Homo sapiens, UniProt P48729+Q96SW2); assay: Western-blot assay, substrate protein in hPBMCs; type: cell-based; conditions: hPBMC cells, 24 hours, tested at 50 nM and 500 nM, table does not say which
T4 construct: endogenous in cells; host or cells: human PBMCs (Milecell Biotechnologies)
T4 sequence (P48729 whole entry): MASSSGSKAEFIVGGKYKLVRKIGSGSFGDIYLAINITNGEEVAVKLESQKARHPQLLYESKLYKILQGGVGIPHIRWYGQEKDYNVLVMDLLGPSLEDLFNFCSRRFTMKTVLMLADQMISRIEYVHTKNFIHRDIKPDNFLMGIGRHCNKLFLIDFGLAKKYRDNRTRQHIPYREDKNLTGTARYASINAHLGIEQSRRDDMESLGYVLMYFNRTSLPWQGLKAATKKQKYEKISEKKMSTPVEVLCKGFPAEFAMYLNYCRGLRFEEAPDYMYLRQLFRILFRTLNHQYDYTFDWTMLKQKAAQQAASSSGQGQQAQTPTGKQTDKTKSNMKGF
T4 sequence (Q96SW2 whole entry): as the sequence (Q96SW2 whole entry) above
T4 sequence (Q16531 whole entry partner): as the sequence (Q16531 whole entry partner) above
Procedure, shortened: as §1

GSPT1 = target: T5, GSPT1 (Homo sapiens, UniProt P15170+Q96SW2); assay: Western-blot assay, substrate protein in hPBMCs; type: cell-based; conditions: hPBMC cells, 24 hours, tested at 50 nM and 500 nM, table does not say which
T5 construct: endogenous in cells; host or cells: human PBMCs (Milecell Biotechnologies)
T5 sequence (P15170 whole entry): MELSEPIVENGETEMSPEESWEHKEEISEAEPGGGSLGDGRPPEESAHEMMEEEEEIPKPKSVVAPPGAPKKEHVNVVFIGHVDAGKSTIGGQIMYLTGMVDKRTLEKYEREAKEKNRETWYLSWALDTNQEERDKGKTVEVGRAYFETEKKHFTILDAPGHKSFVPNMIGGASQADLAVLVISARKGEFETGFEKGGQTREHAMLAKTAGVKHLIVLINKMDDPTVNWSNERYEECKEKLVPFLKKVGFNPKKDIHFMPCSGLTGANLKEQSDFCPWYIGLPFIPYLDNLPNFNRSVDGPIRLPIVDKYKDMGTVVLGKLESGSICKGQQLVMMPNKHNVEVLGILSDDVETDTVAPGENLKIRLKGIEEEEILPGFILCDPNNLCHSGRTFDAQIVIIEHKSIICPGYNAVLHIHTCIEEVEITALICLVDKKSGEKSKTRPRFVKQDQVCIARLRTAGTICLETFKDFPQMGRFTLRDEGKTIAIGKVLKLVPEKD
T5 sequence (Q96SW2 whole entry): as the sequence (Q96SW2 whole entry) above
T5 sequence (Q16531 whole entry partner): as the sequence (Q16531 whole entry partner) above
Procedure, shortened: as §1

IKZF2 = target: T6, IKZF2 (Homo sapiens, UniProt Q96SW2+Q9UKS7); assay: Western-blot assay, substrate protein in hPBMCs; type: cell-based; conditions: hPBMC cells, 24 hours, tested at 50 nM and 500 nM, table does not say which
T6 construct: endogenous in cells; host or cells: human PBMCs (Milecell Biotechnologies)
T6 sequence (Q9UKS7 whole entry): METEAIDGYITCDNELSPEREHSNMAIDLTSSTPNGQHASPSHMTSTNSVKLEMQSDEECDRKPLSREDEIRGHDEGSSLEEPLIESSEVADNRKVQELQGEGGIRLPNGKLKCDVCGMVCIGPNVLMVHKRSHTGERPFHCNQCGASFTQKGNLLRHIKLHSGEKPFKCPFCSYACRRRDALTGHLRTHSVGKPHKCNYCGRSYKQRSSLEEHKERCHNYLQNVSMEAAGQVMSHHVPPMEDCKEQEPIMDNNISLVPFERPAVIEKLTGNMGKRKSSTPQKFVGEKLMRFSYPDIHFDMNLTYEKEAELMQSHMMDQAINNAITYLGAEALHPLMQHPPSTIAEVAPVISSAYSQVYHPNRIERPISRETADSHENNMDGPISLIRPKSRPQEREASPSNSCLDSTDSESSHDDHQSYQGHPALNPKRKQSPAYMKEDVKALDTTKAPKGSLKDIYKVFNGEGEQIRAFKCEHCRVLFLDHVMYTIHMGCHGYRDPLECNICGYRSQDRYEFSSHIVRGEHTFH
T6 sequence (Q96SW2 whole entry): as the sequence (Q96SW2 whole entry) above
T6 sequence (Q16531 whole entry partner): as the sequence (Q16531 whole entry partner) above
Procedure, shortened: as §1

| Compound | IC50 [1] | substrate protein remaining % (IKZF1) | substrate protein remaining % (Wee1) | substrate protein remaining % (CK1α) | substrate protein remaining % (GSPT1) | substrate protein remaining % (IKZF2) |
| --- | --- | --- | --- | --- | --- | --- |
| O=C1CCC(N2Cc3cc(SC4CN(Cc5ccc(-c6ccc(Cl)cc6)cc5)C4)ccc3C2=O)C(=O)N1 (centres unmarked) [GT-06226, 3-(5-((1-((4′-chloro-[1,1′-biphenyl]-4-yl)methyl)azetidin-3-yl)thio)-1-oxoisoindolin-2-yl)piperidine-2,6-dione] | 500 to 1000 nM | A (0%≤ substrate protein remaining % ≤80%) | A (0%≤ substrate protein remaining % ≤80%) |  |  |  |
| CC1(C)CCC(C(=O)N2CCC(Oc3ccc4c(c3)CN(C3CCC(=O)NC3=O)C4=O)C2)=C(c2ccc(Cl)cc2)C1 (centres unmarked) [GT-06816, 3-(5-((1-(4′-chloro-5,5-dimethyl-3,4,5,6-tetrahydro-[1,1′-biphenyl]-2-carbonyl)pyrrolidin-3-yl)oxy)-1-oxoisoindolin-2-yl)piperidine-2,6-dione] | < 500 nM |  | A (0%≤ substrate protein remaining % ≤80%) | A (0%≤ substrate protein remaining % ≤80%) | A (0%≤ substrate protein remaining % ≤80%) | A (0%≤ substrate protein remaining % ≤80%) |
| CC1(C)CCC(CN2CC(Sc3ccc4c(c3)CN(C3CCC(=O)NC3=O)C4=O)C2)=C(c2ccc(Cl)cc2)C1 (centres unmarked) [GT-03464, 3-(5-((1-((4′-chloro-5,5-dimethyl-3,4,5,6-tetrahydro-[1,1′-biphenyl]-2-yl)methyl)azetidin-3-yl)thio)-1-oxoisoindolin-2-yl)piperidine-2,6-dione] | < 500 nM | A (0%≤ substrate protein remaining % ≤80%) | A (0%≤ substrate protein remaining % ≤80%) | A (0%≤ substrate protein remaining % ≤80%) | A (0%≤ substrate protein remaining % ≤80%) |  |
| CC1(C)CCC(C(=O)N2CC(Sc3ccc4c(c3)CN(C3CCC(=O)NC3=O)C4=O)C2)=C(c2ccc(Cl)cc2)C1 (centres unmarked) [GT-06137, 3-(5-((1-(4′-chloro-5,5-dimethyl-3,4,5,6-tetrahydro-[1,1′-biphenyl]-2-carbonyl)azetidin-3-yl)thio)-1-oxoisoindolin-2-yl)piperidine-2,6-dione] | 500 to 1000 nM | A (0%≤ substrate protein remaining % ≤80%) | A (0%≤ substrate protein remaining % ≤80%) |  | A (0%≤ substrate protein remaining % ≤80%) |  |
| O=C1CCC(N2Cc3cc(OC4CC5CN(C(=O)c6ccccc6-c6ccc(Cl)cc6)CC5C4)ccc3C2=O)C(=O)N1 (centres unmarked) [GT-06954, 3-(5-((2-(4′-chloro-[1,1′-biphenyl]-2-carbonyl)octahydro-cyclopenta[c]pyrrol-5-yl)oxy)-1-oxoisoindolin-2-yl)piperidine-2,6-dione] | < 500 nM | A (0%≤ substrate protein remaining % ≤80%) | A (0%≤ substrate protein remaining % ≤80%) |  | A (0%≤ substrate protein remaining % ≤80%) | A (0%≤ substrate protein remaining % ≤80%) |
| O=C1CCC(N2Cc3cc(OC4CN(C(c5ccccc5)c5cccnc5)C4)ccc3C2=O)C(=O)N1 (centres unmarked) [GT-06760, 3-(1-oxo-5-((1-(phenyl(pyridin-3-yl)methyl)azetidin-3-yl)oxy)isoindolin-2-yl)piperidine-2,6-dione] | < 500 nM | A (0%≤ substrate protein remaining % ≤80%) | A (0%≤ substrate protein remaining % ≤80%) |  |  | A (0%≤ substrate protein remaining % ≤80%) |
| CC1(C)CCC(CN2CC(Sc3cccc4c3C(=O)N(C3CCC(=O)NC3=O)C4)C2)=C(c2ccc(Cl)cc2)C1 (centres unmarked) [GT-06812, 3-(7-((1-((4′-chloro-5,5-dimethyl-3,4,5,6-tetrahydro-[1,1′-biphenyl]-2-yl)methyl)azetidin-3-yl)thio)-1-oxoisoindolin-2-yl)piperidine-2,6-dione] | 1000 to 1900 nM | A (0%≤ substrate protein remaining % ≤80%) | A (0%≤ substrate protein remaining % ≤80%) |  | A (0%≤ substrate protein remaining % ≤80%) |  |
| O=C1CCC(N2Cc3cc(SC4CN(Cc5cccc(-c6ccc(Cl)cc6)c5)C4)ccc3C2=O)C(=O)N1 (centres unmarked) [GT-06225, 3-(5-((1-((4′-chloro-[1,1′-biphenyl]-3-yl)methyl)azetidin-3-yl)thio)-1-oxoisoindolin-2-yl)piperidine-2,6-dione] | < 500 nM | A (0%≤ substrate protein remaining % ≤80%) |  |  | A (0%≤ substrate protein remaining % ≤80%) |  |
| O=C1CCC(N2Cc3cc(OC4CN(C(c5cccc(F)c5)c5cccc(F)c5)C4)ccc3C2=O)C(=O)N1 (centres unmarked) [GT-06352, 3-(5-((1-(bis(3-fluorophenyl)methyl)azetidin-3-yl)oxy)-1-oxoisoindolin-2-yl)piperidine-2,6-dione] | 500 to 1000 nM | A (0%≤ substrate protein remaining % ≤80%) |  | A (0%≤ substrate protein remaining % ≤80%) | A (0%≤ substrate protein remaining % ≤80%) |  |
| O=C1CCC(N2Cc3cc(SC4CC5(CCN(C(c6ccccc6)c6ccccc6)CC5)C4)ccc3C2=O)C(=O)N1 (centres unmarked) [GT-06920, 3-(5-((7-benzhydryl-7-azaspiro[3.5]nonan-2-yl)thio)-1-oxoisoindolin-2-yl)piperidine-2,6-dione] | < 500 nM | A (0%≤ substrate protein remaining % ≤80%) | A (0%≤ substrate protein remaining % ≤80%) |  |  |  |
| O=C1CCC(N2Cc3cc(OC4CN(C(c5ccccc5)c5ccccn5)C4)ccc3C2=O)C(=O)N1 (centres unmarked) [GT-06559, 3-(1-oxo-5-((1-(phenyl(pyridin-2-yl)methyl)azetidin-3-yl)oxy)isoindolin-2-yl)piperidine-2,6-dione] | < 500 nM |  | A (0%≤ substrate protein remaining % ≤80%) | A (0%≤ substrate protein remaining % ≤80%) | A (0%≤ substrate protein remaining % ≤80%) | A (0%≤ substrate protein remaining % ≤80%) |
| O=C1CCC(N2Cc3cc(SC4CN(C(c5ccc(F)cc5)c5ccc(F)cc5)C4)ccc3C2=O)C(=O)N1 (centres unmarked) [GT-06503, 3-(5-((1-(bis(4-fluorophenyl)methyl)azetidin-3-yl)thio)-1-oxoisoindolin-2-yl)piperidine-2,6-dione] | 500 to 1000 nM | A (0%≤ substrate protein remaining % ≤80%) | A (0%≤ substrate protein remaining % ≤80%) | A (0%≤ substrate protein remaining % ≤80%) | A (0%≤ substrate protein remaining % ≤80%) |  |
| O=C1CCC(N2Cc3cccc(SC4CNC4)c3C2=O)C(=O)N1 (centres unmarked) [GT-06994, 3-(7-(azetidin-3-ylthio)-1-oxoisoindolin-2-yl)piperidine-2,6-dione] |  | A (0%≤ substrate protein remaining % ≤80%) |  |  |  | A (0%≤ substrate protein remaining % ≤80%) |
| O=C1CCC(N2Cc3cc(OC4CN(Cc5ccc(-c6ccco6)s5)C4)ccc3C2=O)C(=O)N1 (centres unmarked) [GT-06562, 3-(5-((1-((5-(furan-2-yl)thiophen-2-yl)methyl)azetidin-3-yl)oxy)-1-oxoisoindolin-2-yl)piperidine-2,6-dione] | < 500 nM | A (0%≤ substrate protein remaining % ≤80%) | A (0%≤ substrate protein remaining % ≤80%) |  | A (0%≤ substrate protein remaining % ≤80%) |  |
